Assay results taken from ChEMBL document CHEMBL2021894, “The Discovery of VX-745: A Novel and Selective p38α Kinase Inhibitor” (ACS Med Chem Lett, 2011).
pIC50: −log10 of the molar value. Activity calls are given as the source filed them. The calls are words filed in the database; no cut-off is given here.

What was measured:
[1] = Inhibition of PKA by filter binding assay
PBMC = test: Antiproliferative activity against PHA-stimulated human PBMC assessed as inhibition of cell proliferation after 72 hrs by thymidine incorporation assay; type: cell-based
[2] = biological target: Mitogen-activated protein kinase 1 (Homo sapiens) (UniProt P28482); test: Inhibition of ERK2 using ATGPLSPGPFGRR as substrate at 100 uM by spectrophotometric enzyme-coupled assay
[3] = biological target: Dual specificity mitogen-activated protein kinase kinase 6 (Homo sapiens) (UniProt P52564); test: Inhibition of MKK6
[4] = biological target: Casein kinase I isoform alpha (Homo sapiens) (UniProt P48729); test: Inhibition of CK1 at 2 uM
[5] = biological target: Mitogen-activated protein kinase 8 (Homo sapiens) (UniProt P45983); test: Inhibition of JNK1 at 2 uM
[6] = biological target: Tyrosine-protein kinase Lck (Homo sapiens) (UniProt P06239); test: Inhibition of LCK at 2 uM
[7] = biological target: Dual specificity mitogen-activated protein kinase kinase 1 (Homo sapiens) (UniProt Q02750); test: Inhibition of Mek1 at 2 uM
[8] = biological target: Dual specificity mitogen-activated protein kinase kinase 6 (Homo sapiens) (UniProt P52564); test: Inhibition of MKK6 at 2 uM
[9] = biological target: Serine/threonine-protein kinase N2 (Homo sapiens) (UniProt Q16513); test: Inhibition of PRK2 at 2 uM
[10] = biological target: Rho-associated protein kinase 2 (Homo sapiens) (UniProt O75116); test: Inhibition of ROCK2 at 2 uM
[11] = biological target: Serine/threonine-protein kinase Sgk1 (Homo sapiens) (UniProt O00141); test: Inhibition of SGK at 2 uM
[12] = Half life in Sprague-Dawley rat at 4.8 mg/kg, iv; type: ADME, organism-based; parameters: dose 4.8 mg/kg, route intravenous; settings: in vivo
[13] = Volume of distribution at steady state in Sprague-Dawley rat at 4.8 mg/kg, iv; type: ADME, organism-based; parameters: dose 4.8 mg/kg, route intravenous; settings: in vivo, read-out: Vdss
[14] = AUC in Sprague-Dawley rat at 4.8 mg/kg, iv; type: ADME, organism-based; parameters: dose 4.8 mg/kg, route intravenous; settings: plasma
[15] = Clearance in Sprague-Dawley rat at 4.8 mg/kg, iv; type: ADME, organism-based; parameters: dose 4.8 mg/kg, route intravenous; settings: in vivo
[16] = Volume of distribution at steady state in BALB/c mouse at 2 mg/kg, iv; type: ADME, organism-based; parameters: dose 2 mg/kg, route intravenous; settings: in vivo, read-out: Vdss
[17] = AUC in BALB/c mouse at 2 mg/kg, iv; type: ADME, organism-based; parameters: dose 2 mg/kg, route intravenous; settings: plasma
[18] = Half life in beagle dog at 13.8 mg/kg, iv; type: ADME, organism-based, Canis lupus familiaris; parameters: dose 13.8 mg/kg, route intravenous; settings: in vivo
[19] = Volume of distribution at steady state in beagle dog at 13.8 mg/kg, iv; type: ADME, organism-based, Canis lupus familiaris; parameters: dose 13.8 mg/kg, route intravenous; settings: in vivo, read-out: Vdss
Canis familiaris [20] = test: AUC in beagle dog at 13.8 mg/kg, iv; type: ADME, organism-based, Canis lupus familiaris, Plasma; parameters: dose 13.8 mg/kg, route intravenous; settings: in vivo
[21] = Clearance in beagle dog at 13.8 mg/kg, iv; type: ADME, organism-based, Canis lupus familiaris; parameters: dose 13.8 mg/kg, route intravenous; settings: in vivo
[22] = Half life in Sprague-Dawley rat at 43 mg/kg, po; type: ADME, organism-based; parameters: dose 43 mg/kg, route oral; settings: in vivo
[23] = AUC in Sprague-Dawley rat at 43 mg/kg, po; type: ADME, organism-based; parameters: dose 43 mg/kg, route oral; settings: plasma
[24] = Oral bioavailability in Sprague-Dawley rat at 43 mg/kg; type: ADME, organism-based; settings: in vivo
[25] = Cmax in BALB/c mouse at 40 mg/kg, po; type: ADME, organism-based; parameters: dose 40 mg/kg, route oral; settings: in vivo
[26] = AUC in BALB/c mouse at 40 mg/kg, po; type: ADME, organism-based; parameters: dose 40 mg/kg, route oral; settings: plasma
[27] = Oral bioavailability in BALB/c mouse at 40 mg/kg; type: ADME, organism-based; settings: in vivo
[28] = Half life in beagle dog at 33 mg/kg, po; type: ADME, organism-based, Canis lupus familiaris; parameters: dose 33 mg/kg, route oral; settings: in vivo
Canis familiaris [29] = test: AUC in beagle dog at 33 mg/kg, po; type: ADME, organism-based, Canis lupus familiaris, Plasma; parameters: dose 33 mg/kg, route oral; settings: in vivo
Canis familiaris [30] = test: Oral bioavailability in beagle dog at 33 mg/kg; type: ADME, organism-based, Canis lupus familiaris; settings: in vivo
[31] = Induction of human cytochrome P450; type: ADME
Cytochrome P450 2D6 = Cytochrome P450 2D6 (Homo sapiens, UniProt P10635); test: Inhibition of human CYP2D6; type: ADME
Cytochrome P450 2C9 = Cytochrome P450 2C9 (Homo sapiens, UniProt P11712); test: Inhibition of human CYP2C9; type: ADME
Cytochrome P450 1A2 = Cytochrome P450 1A2 (Homo sapiens, UniProt P05177); test: Inhibition of human CYP1A2; type: ADME
[32] = Plasma protein binding in dog; type: ADME, cell-free, Canis lupus familiaris; settings: read-out: PPB (converted)
Mus musculus = test: Antiarthritic activity in complete Freund's adjuvant-immunized DBA/1J mouse assessed as inhibition of type 2 collagen-induced paw inflammation at 10 mg/kg, po bid measured on day 20; type: functional; settings: 480 h
[33] = Inhibition of Gsk3 by filter binding assay
[34] = biological target: Mitogen-activated protein kinase 11 (Homo sapiens) (UniProt Q15759); settings: 100 uM
[35] = biological target: Tyrosine-protein kinase receptor UFO (Homo sapiens) (UniProt P30530); settings: 2 uM
Description: Inhibition of Axl at 2 uM

[36] = biological target: Tyrosine-protein kinase Blk (Homo sapiens) (UniProt P51451); settings: 2 uM
Description: Inhibition of Blk at 2 uM

[37] = biological target: Cyclin-dependent kinase 5 (Homo sapiens) (UniProt Q00535); settings: 2 uM
Description: Inhibition of CDK5 at 2 uM

[38] = biological target: Serine/threonine-protein kinase Chk1 (Homo sapiens) (UniProt O14757); settings: 2 uM
Description: Inhibition of CHK1 at 2 uM

[39] = biological target: Mitogen-activated protein kinase 3 (Homo sapiens) (UniProt P27361); settings: 2 uM
Description: Inhibition of ERK1 at 2 uM

[40] = biological target: Ephrin type-B receptor 4 (Homo sapiens) (UniProt P54760); settings: 2 uM
Description: Inhibition of EphB4 at 2 uM

[41] = biological target: Tyrosine-protein kinase Lyn (Homo sapiens) (UniProt P07948); settings: 2 uM
Description: Inhibition of Lyn at 2 uM

[42] = biological target: Dual specificity mitogen-activated protein kinase kinase 7 (Homo sapiens) (UniProt O14733); settings: 2 uM
Description: Inhibition of MKK7 at 2 uM

[43] = biological target: Ribosomal protein S6 kinase alpha-5 (Homo sapiens) (UniProt O75582); settings: 2 uM
Description: Inhibition of MSK1 at 2 uM

[44] = biological target: Serine/threonine-protein kinase 3 (Homo sapiens) (UniProt Q13188); settings: 2 uM
Description: Inhibition of Mst2 at 2 uM

[45] = biological target: Serine/threonine-protein kinase PAK 2 (Homo sapiens) (UniProt Q13177); settings: 2 uM
Description: Inhibition of PAK2 at 2 uM

[46] = biological target: Protein kinase C iota type (Homo sapiens) (UniProt P41743); settings: 2 uM
Description: Inhibition of PKCiota at 2 uM

[47] = biological target: Protein kinase C theta type (Homo sapiens) (UniProt Q04759); settings: 2 uM
Description: Inhibition of PKCtheta at 2 uM

[48] = biological target: RAF proto-oncogene serine/threonine-protein kinase (Homo sapiens) (UniProt P04049); settings: 2 uM
Description: Inhibition of RAFc at 2 uM

[49] = biological target: Ribosomal protein S6 kinase alpha-2 (Homo sapiens) (UniProt Q15349); settings: 2 uM
Description: Inhibition of Rsk3 at 2 uM

[50] = biological target: Angiopoietin-1 receptor (Homo sapiens) (UniProt Q02763); settings: 2 uM
Description: Inhibition of Tie2 at 2 uM

Chain of Dual specificity mitogen-activated protein kinase kinase 6 (Homo sapiens) (P52564 whole entry, canonical isoform): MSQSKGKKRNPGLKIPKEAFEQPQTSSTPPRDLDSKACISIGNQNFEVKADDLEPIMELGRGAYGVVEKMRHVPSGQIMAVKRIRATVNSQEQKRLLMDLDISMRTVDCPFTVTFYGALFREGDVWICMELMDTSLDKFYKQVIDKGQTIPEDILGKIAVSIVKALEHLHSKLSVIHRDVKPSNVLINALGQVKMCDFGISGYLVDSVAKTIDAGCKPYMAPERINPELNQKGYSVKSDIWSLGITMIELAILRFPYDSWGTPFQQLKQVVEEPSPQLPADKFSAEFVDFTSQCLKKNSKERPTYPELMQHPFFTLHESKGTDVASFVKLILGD
Chain of Mitogen-activated protein kinase 3 (Homo sapiens) (P27361 whole entry): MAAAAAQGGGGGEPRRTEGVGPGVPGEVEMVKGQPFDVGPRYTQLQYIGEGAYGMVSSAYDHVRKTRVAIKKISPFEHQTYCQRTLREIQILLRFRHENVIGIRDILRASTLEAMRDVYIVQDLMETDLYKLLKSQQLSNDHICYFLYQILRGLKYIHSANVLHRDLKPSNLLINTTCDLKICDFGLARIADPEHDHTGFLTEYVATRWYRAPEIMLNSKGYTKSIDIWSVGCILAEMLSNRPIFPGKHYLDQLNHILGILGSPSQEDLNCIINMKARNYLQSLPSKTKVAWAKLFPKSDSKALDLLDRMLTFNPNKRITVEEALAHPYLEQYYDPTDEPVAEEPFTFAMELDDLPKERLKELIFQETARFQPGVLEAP
Chain of Serine/threonine-protein kinase 3 (Homo sapiens) (Q13188 whole entry): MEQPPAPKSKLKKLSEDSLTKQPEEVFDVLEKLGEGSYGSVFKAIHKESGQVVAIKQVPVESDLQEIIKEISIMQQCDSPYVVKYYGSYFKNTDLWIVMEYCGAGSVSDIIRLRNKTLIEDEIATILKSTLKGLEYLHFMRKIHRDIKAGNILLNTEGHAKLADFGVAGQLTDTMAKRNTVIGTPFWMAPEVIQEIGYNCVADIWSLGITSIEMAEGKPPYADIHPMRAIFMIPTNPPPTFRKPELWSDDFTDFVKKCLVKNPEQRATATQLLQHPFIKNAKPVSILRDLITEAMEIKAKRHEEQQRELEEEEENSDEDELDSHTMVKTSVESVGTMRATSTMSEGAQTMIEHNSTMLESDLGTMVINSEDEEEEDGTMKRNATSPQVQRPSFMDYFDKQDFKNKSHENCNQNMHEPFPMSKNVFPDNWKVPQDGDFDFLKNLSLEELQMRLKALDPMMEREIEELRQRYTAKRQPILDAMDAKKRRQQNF
Chain of RAF proto-oncogene serine/threonine-protein kinase (Homo sapiens) (P04049 whole entry): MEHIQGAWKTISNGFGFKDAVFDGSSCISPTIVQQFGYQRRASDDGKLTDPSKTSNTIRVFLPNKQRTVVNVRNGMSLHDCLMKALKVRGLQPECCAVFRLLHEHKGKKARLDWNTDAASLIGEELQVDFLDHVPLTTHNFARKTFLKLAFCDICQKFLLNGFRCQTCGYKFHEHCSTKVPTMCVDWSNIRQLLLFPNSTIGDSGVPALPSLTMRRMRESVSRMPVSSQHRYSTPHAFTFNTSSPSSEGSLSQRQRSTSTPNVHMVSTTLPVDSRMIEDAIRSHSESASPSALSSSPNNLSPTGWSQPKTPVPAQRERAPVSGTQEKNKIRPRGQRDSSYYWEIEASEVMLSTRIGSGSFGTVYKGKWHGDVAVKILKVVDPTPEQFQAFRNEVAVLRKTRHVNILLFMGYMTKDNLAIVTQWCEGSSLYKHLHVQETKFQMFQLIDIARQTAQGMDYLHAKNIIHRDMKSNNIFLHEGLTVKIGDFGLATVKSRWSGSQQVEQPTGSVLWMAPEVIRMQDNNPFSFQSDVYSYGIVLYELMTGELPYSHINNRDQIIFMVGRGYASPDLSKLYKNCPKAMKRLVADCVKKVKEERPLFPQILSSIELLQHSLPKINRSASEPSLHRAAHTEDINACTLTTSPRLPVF
Chain of Dual specificity mitogen-activated protein kinase kinase 7 (Homo sapiens) (O14733 whole entry): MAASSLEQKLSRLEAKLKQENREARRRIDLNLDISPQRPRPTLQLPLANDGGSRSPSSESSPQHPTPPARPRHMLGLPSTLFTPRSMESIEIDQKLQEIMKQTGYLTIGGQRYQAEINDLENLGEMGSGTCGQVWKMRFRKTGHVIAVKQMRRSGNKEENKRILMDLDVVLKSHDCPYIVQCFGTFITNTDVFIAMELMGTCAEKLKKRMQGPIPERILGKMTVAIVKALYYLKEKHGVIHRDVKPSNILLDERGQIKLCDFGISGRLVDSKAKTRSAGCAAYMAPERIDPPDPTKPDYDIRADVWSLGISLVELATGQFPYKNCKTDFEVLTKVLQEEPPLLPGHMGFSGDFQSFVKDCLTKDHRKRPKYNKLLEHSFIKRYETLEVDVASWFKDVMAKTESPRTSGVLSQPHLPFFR
Chain of Mitogen-activated protein kinase 1 (Homo sapiens) (P28482 whole entry): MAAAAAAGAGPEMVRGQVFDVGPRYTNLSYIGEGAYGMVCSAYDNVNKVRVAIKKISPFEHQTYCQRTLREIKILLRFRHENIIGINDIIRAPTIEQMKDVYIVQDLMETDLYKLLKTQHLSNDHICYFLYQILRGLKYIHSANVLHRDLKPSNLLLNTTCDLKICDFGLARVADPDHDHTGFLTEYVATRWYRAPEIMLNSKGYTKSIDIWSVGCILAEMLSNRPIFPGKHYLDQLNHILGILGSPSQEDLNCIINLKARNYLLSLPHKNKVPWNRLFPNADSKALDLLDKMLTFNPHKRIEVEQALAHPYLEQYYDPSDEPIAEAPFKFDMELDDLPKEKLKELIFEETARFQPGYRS
Chain of Cytochrome P450 2C9 (P11712 whole entry): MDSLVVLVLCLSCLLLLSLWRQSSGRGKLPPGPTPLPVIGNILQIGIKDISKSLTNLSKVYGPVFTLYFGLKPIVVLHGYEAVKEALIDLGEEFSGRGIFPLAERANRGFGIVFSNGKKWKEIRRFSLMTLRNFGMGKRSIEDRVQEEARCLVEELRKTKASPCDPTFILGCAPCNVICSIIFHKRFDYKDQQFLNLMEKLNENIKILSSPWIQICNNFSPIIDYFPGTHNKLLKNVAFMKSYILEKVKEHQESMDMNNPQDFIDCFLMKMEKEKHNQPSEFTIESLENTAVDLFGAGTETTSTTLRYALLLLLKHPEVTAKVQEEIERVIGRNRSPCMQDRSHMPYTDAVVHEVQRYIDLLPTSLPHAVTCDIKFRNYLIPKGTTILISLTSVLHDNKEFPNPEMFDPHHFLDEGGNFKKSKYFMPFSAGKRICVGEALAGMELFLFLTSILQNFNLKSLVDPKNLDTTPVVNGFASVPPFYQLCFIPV
Chain of Cytochrome P450 2D6 (P10635 whole entry): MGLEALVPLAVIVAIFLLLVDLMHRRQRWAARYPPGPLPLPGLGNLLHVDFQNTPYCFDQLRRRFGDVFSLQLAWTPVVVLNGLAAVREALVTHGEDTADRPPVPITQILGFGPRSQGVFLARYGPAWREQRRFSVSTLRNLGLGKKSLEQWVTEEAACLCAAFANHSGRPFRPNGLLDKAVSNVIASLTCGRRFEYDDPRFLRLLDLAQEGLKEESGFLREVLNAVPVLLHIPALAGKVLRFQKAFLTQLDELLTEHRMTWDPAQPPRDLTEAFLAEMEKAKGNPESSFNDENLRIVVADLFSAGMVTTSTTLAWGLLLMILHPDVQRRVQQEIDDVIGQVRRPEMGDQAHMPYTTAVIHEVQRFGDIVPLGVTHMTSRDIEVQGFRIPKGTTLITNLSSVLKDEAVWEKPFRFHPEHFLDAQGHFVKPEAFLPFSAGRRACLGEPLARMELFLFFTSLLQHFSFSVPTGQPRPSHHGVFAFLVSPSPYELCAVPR
Chain of Tyrosine-protein kinase Lyn (Homo sapiens) (P07948 2-512 limits assumed): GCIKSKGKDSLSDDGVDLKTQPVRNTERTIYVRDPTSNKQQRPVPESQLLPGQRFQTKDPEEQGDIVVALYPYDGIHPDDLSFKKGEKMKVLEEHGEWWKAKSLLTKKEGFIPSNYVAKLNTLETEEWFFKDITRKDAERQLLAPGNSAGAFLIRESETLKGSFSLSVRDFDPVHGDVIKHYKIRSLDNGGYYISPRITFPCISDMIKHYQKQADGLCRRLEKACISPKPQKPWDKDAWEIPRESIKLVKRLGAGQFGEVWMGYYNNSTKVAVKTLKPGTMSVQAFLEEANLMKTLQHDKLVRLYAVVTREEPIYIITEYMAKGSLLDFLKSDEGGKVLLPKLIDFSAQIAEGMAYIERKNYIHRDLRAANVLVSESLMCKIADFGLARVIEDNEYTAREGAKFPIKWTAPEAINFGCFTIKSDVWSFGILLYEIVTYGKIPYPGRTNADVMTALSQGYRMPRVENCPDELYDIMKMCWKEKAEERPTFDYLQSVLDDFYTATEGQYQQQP
Chain of Cytochrome P450 1A2 (P05177 whole entry): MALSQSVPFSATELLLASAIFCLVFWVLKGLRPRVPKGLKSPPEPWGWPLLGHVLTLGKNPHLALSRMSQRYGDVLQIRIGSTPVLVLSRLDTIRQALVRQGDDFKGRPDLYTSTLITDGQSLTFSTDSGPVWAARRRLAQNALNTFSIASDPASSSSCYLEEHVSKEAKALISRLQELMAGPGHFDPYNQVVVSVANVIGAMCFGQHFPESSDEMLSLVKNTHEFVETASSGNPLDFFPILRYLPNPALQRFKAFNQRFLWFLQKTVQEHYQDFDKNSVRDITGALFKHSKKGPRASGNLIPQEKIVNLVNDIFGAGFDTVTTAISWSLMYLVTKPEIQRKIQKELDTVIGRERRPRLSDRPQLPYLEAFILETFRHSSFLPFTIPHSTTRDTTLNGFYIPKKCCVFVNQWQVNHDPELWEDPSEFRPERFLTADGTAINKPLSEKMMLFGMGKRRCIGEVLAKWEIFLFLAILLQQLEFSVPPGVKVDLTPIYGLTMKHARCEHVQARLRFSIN
Chain of Cyclin-dependent kinase 5 (Homo sapiens) (Q00535 whole entry, looked up): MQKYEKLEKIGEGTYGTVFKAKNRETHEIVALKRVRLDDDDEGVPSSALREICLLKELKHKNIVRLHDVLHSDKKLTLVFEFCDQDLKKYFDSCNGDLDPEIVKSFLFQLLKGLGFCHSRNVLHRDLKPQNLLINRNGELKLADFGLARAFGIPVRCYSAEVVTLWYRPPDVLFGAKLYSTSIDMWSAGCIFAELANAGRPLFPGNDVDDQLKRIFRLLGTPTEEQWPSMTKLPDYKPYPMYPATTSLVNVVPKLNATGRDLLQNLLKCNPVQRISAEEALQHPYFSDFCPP

## O=c1ncn2nc(Sc3ccc(F)cc3F)ccc2c1-c1c(Cl)cccc1Cl [NEFLAMAPIMOD]
[1]
  pIC50: < 5.30
PBMC
  Activity: Non-toxic
[2]
  inhibition: inactive
[3]
  inhibition: Active
[4]
  inhibition: 1%
[5]
  inhibition: 10%
[6]
  inhibition: 20%
[7]
  inhibition: 5%
[8]
  inhibition: 95%
[9]
  inhibition: 13%
[10]
  inhibition: 8%
[11]
  inhibition: 5%
[12]
  half-life: 1.9 h
[13]
  Vd: 3.9 L/kg
[14]
  AUC: 1260 ng·h/mL
[15]
  clearance: 63 mL/min/kg
[16]
  Vd: 2.2 L/kg
[17]
  AUC: 1540 ng·h/mL
[18]
  half-life: 1.5 h
[19]
  Vd: 2.3 L/kg
Canis familiaris [20]
  AUC: 6120 ng·h/mL
[21]
  clearance: 39 mL/min/kg
[22]
  half-life: 4.5 h
[23]
  AUC: 6300 ng·h/mL
[24]
  bioavailability: 56%
[25]
  Cmax: 7850 ng/mL
[26]
  AUC: 27000 ng·h/mL
[27]
  bioavailability: 87%
[28]
  half-life: 4.5 h
Canis familiaris [29]
  AUC: 4340 ng·h/mL
Canis familiaris [30]
  F: 69%
[31]
  Activity: Not Active
Cytochrome P450 2D6
  pIC50: < 4.40
Cytochrome P450 2C9
  pIC50: < 4.40
Cytochrome P450 1A2
  pIC50: < 4.40
[32]
  fraction unbound: 0.08
Mus musculus
  inhibition in vivo at 10 mg/kg: 44%
[33]
  pIC50: < 5.30
[34]
  inhibition: inactive
[35]
  inhibition: 0%
[36]
  inhibition: 0%
[37]
  inhibition: 0%
[38]
  inhibition: 0%
[39]
  inhibition: 0%
[40]
  inhibition: 16%
[41]
  inhibition: 0%
[42]
  inhibition: 0%
[43]
  inhibition: 0%
[44]
  inhibition: 0%
[45]
  inhibition: 0%
[46]
  inhibition: 0%
[47]
  inhibition: 0%
[48]
  inhibition: 0%
[49]
  inhibition: 0%
[50]
  inhibition: 0%
